Reference: US4510132A, “Compounds for use in antibacterial therapy” (priority 1982, dated 1985)
“Also recorded” adds a separate entry of the source.

Legend:
[1] = system: Salmonella typhimurium LT2 strain SL 696; assay: MIC of antibiotics in the presence of polymyxin nonapeptide, microtiter plate, S. typhimurium; type: cell-based; conditions: for minimum inhibitory concentration (MIC) of the antibiotic: 18 h; for factor by which PMBN sensitized the strain to the antibiotic: S. typhimurium strain SL 696, from Table 1; for MIC of fusidic acid: S. typhimurium
Protocol: (§1) Methods. Smooth Salmonella typhimurium LT2 strain SL 696 (Wilkinson et al 1972 J. Gen. Microbiol. 70,527) was used as indicator organism. It was grown in Luria broth (Miller 1972. Experience in molecular genetics, Cold Spring Harbor Laboratory, New York) at 37° C. in a rotary shaker (220 rpm) into early logarithmic growth phase (Klett 40 units, Klett-Summerson colorimeter, red filter) washed with 0.9% NaCl and resuspended in 0.9% NaCl (final optical density 120 Klett units corresponding to approx. 10^9 cells/ml).
(§2) Erythromycin ethylsuccinate stock solution was prepared by dissolving 5.5 mg of erythromycin […] with 2 ml of 96% ethanol whereafter deionized water was added to a final volume of 5.5 ml. Other antibiotics were readily dissolved in deionized water.
(§3) Experimental procedure: Davis minimal growth medium (Sanderson et al, 1972, Bact. Rev. 36,608) containing glucose (1 g/l), casaminoacids (1 g/l. Difco), tryptophan (20 mg/l), and increasing amounts of a particular antibiotic was inoculated with 10^4 cells per ml of a fresh suspension of indicator bacteria. Aliquots (200 μl) of this inoculated medium were pipetted in wells of a microtiter plate (Titertek, CAT NO. 76-213-05, Flow Laboratories, United States). Each well already contained increasing amounts of the particular polycationic agent in 30 μl of 0.9% NaCl. The plates were sealed with adhesive tape and incubated at 37° C. for 18 h.
(§4) Methods. The known compound, polymyxin E nonapeptide (colistin E nonapeptide, Japanese patent specification Nos. 4178/1971 and 51355/1972) having the following formula: [drawing 5] where leu is leucine, thr is threonine, and dab is diaminobutyric acid, was prepared from polymyxin E (colistin) using an enzymatic ficin treatment as described by Chihara et al (Agr. Biol. Chem. 37,2455, 1973).

[2] = system: E. coli strain IH 3080 (018:K1); assay: MIC of antibiotics in the presence of polymyxin nonapeptide, microtiter plate, E. coli; type: cell-based; conditions: for factor by which PMBN sensitized the strain to the antibiotic: E. coli 018:K1 strain IH 3080, from Table 2; for MIC of the antibiotic: E. coli IH 3080
Protocol: as §1, §2, §3
Methods. The methods were those presented in Example 3 except that E. coli was used as the test organism. The E. coli strain was IH 3080 (018:K1) isolated from the cerebrospinal fluid of a neonate with meningitis.
as §4

[3] = system: E. coli strain IH 3080 (018:K1); assay: Experimental E. coli infection in mice, PMBN combined with erythromycin; type: in vivo, female NMRI mice; conditions: for Number of dead mice: 10 mice per group
Description: Methods. […] The mice were followed 7 days for deaths.

[4] = system: E. coli strains IHE 3080, EH 817, IHE 11038, IHE 11055, IHE 11167; assay: Sensitization of E. coli strains to killing by 10% normal human serum (complement); type: cell-based
Protocol: Methods. The strains used were smooth Salmonella typhirmurium LT2 strain SL 696 (Wilkinson et al 1972 J. Gen. Microbiol. 70, 527) and the following E. coli strains isolated at the National Public Health Institute, Helsinki: IHE 3080 (018,K1), EH 817 (018,K1^- derivative of IHE 3080), IHE 11038 (018,K5), IHE 11055 (02,K1), and IHE 11167 (04,K12). Bacteria were grown in Luria broth (Miller 1972. Experiments in molecular genetics, Cold Spring Harbor Laboratory, New York) at 37° C. in a rotary shaker (220 rpm) into early logaritmic growth phase (Klett 40 units, Klett-Summerson colorimeter, red filter) washed with PBS (phosphate buffered saline, 8.0 g of NaCl, 0.2 g of KCl, 1.44 g of Na2 HPO4 x2H2 O and 0.2 g of KH2 PO4 per liter) and resuspended in PBS, (final optical density 120 Klett units corresponding to approx. 10^9 cells/ml).
Pooled normal human serum from 39 healthy blood donors was used as complement source. It was stored at -70° C. before use.
Experimental procedure: 10% NHS in PBS was inoculated with approx. 300 cells of freshly grown bacteria and pipetted in 200 μl aliquots in wells of mictrotiter plate (Titertek®, CAT NO. 76-213-05). The wells already contained increasing amounts of PMBN in 30 μl of 0.9% NaCl. […] The agar plates were incubated overnight at 37° C. and the developed colonies were counted.

[5] = PMBN 0 μg/ml, S. typhimurium SL 696
[6] = PMBN 0.3 μg/ml, S. typhimurium SL 696
[7] = PMBN 1 μg/ml, S. typhimurium SL 696
[8] = PMBN 3 μg/ml, S. typhimurium SL 696
[9] = PMBN 10 μg/ml, S. typhimurium SL 696
[10] = PMBN 30 μg/ml, S. typhimurium SL 696

Row | Molecule | minimum inhibitory concentration (MIC) of the antibiotic [1, 5] | minimum inhibitory concentration (MIC) of the antibiotic [1, 6] | minimum inhibitory concentration (MIC) of the antibiotic [1, 7] | minimum inhibitory concentration (MIC) of the antibiotic [1, 8] | minimum inhibitory concentration (MIC) of the antibiotic [1, 9] | minimum inhibitory concentration (MIC) of the antibiotic [1, 10] | factor by which PMBN sensitized the strain to the antibiotic [1] | factor by which PMBN sensitized the strain to the antibiotic [2] | MIC of the antibiotic ([2]; PMBN 0 μg/ml) | MIC of the antibiotic ([2]; PMBN 0.3 μg/ml) | MIC of the antibiotic ([2]; PMBN 1 μg/ml) | MIC of the antibiotic ([2]; PMBN 3 μg/ml) | MIC of the antibiotic ([2]; PMBN 10 μg/ml) | further results
1 | CC1(C)S[C@@H]2[C@H](NC(=O)Cc3ccccc3)C(=O)N2[C@H]1C(=O)O [Benzylpenicillin, benzylpenicillin] | 10 | 10 | 10 | 3 | 3 | 1 | 10 times | 3 times | 10 mg/L | 10 mg/L | 10 mg/L | 3 mg/L | 3 mg/L | 
2 | CCC[C@@H]1C[C@@H](C(=O)N[C@@H]([C@H]2O[C@H](SC)[C@H](O)[C@@H](O)[C@H]2O)[C@H](C)Cl)N(C)C1.Cl [Clindamycin, clindamycin hydrochloride] |  |  |  |  |  |  |  |  | 30 mg/L | 3 mg/L | 3 mg/L | 3 mg/L | 3 mg/L | 
3 | Cc1onc(-c2ccccc2Cl)c1C(=O)N[C@@H]1C(=O)N2[C@@H]1SC(C)(C)[C@@H]2C(=O)O [Cloxacillin, cloxacillin] | ≥ 1000 | 300 | 100 | 100 | 30 | 30 | ≥ 30 times | 100 times | > 300 mg/L | 100 mg/L | 100 mg/L | 30 mg/L | 30 mg/L | 
4 | CCOC(=O)CCC(=O)O[C@H]1[C@H](O[C@@H]2[C@@H](C)[C@H](O[C@H]3C[C@@](C)(OC)[C@@H](O)[C@H](C)O3)[C@@H](C)C(=O)O[C@H](CC)[C@@](C)(O)[C@H](O)[C@@H](C)C(=O)[C@H](C)C[C@@]2(C)O)O[C@H](C)C[C@@H]1N(C)C [Erythromycin, erythromycin ethylsuccinate] | ≥ 100 | 30 | 10 | 10 | 3 | 3 | ≥ 30 times | ≥ 100 times | 30 mg/L | 1 mg/L | 1 mg/L | 1 mg/L | 1 mg/L | Number of dead mice ([3]; day 1 after infection, erythromycin 10 mg/kg i.p., PMBN 10 mg/kg s.c.): 7; Number of dead mice ([3]; day 2 after infection): 8; Number of dead mice ([3]; day 3 after infection): 9; Number of dead mice ([3]; day 4 after infection): 9; Number of dead mice ([3]; day 5 after infection): 9; Number of dead mice ([3]; day 6 after infection): 9; Number of dead mice ([3]; day 7 after infection): 9; therapeutic action against the E. coli infection ([3]; mice, erythromycin 10 mg/kg, PMBN 10 mg/kg): without any therapeutic action
5 | CC(=O)O[C@H]1C[C@@]2(C)[C@@H](C[C@@H](O)[C@H]3[C@@]4(C)CC[C@@H](O)[C@@H](C)[C@@H]4CC[C@@]32C)/C1=C(\CCC=C(C)C)C(=O)O [Fusidic acid, fusidic acid] | 300 | 100 | 30 | 30 | 10 | ≥ 3 | ≥ 100 times | 100 times | 100 mg/L | 3 mg/L | 3 mg/L | 3 mg/L | 1 mg/L | MIC of fusidic acid ([1]; PMEN 0 μg/ml): 300; MIC of fusidic acid ([1]; PMEN 0.3 μg/ml): 100; MIC of fusidic acid ([1]; PMEN 1.0 μg/ml): 30; MIC of fusidic acid ([1]; PMEN 3.0 μg/ml): 10; MIC of fusidic acid ([1]; PMEN 10 μg/ml): 3; MIC of fusidic acid ([1]; PMEN 30 μg/ml): 1; MIC of fusidic acid ([2]; PMEN 0 μg/ml, E. coli): 100; MIC of fusidic acid ([2]; PMEN 0.3 μg/ml, E. coli): 10; MIC of fusidic acid ([2]; PMEN 1.0 μg/ml, E. coli): 10; MIC of fusidic acid ([2]; PMEN 3.0 μg/ml, E. coli): 3; MIC of fusidic acid ([2]; PMEN 10 μg/ml, E. coli): 3; MIC of fusidic acid ([2]; PMEN 30 μg/ml, E. coli): 1
6 | CCOc1ccc2ccccc2c1C(=O)N[C@@H]1C(=O)N2[C@@H]1SC(C)(C)[C@@H]2C(=O)O [Nafcillin, nafcillin] | ≥ 1000 | ≥ 1000 | 100 | 100 | 30 | 30 | ≥ 30 times |  |  |  |  |  |  | 
7 | CO[C@@H]1[C@@H](OC(N)=O)[C@@H](O)[C@H](Oc2ccc3c(O)c(NC(=O)c4ccc(O)c(CC=C(C)C)c4)c(=O)oc3c2C)OC1(C)C [Novobiocin, novobiocin] | ≥ 100 | 10 | 3 | 3 | 1 | 1 | ≥ 100 times | 10 times | 30 mg/L | 10 mg/L | 10 mg/L | 3 mg/L | 3 mg/L | 
8 | CO[C@H]1/C=C/O[C@@]2(C)Oc3c(C)c(O)c4c(O)c(c(/C=N/N5CCN(C)CC5)c(O)c4c3C2=O)NC(=O)/C(C)=C\C=C\[C@H](C)[C@H](O)[C@@H](C)[C@@H](O)[C@@H](C)[C@H](OC(C)=O)[C@@H]1C [Rifampicin] |  |  |  |  |  |  |  | 100 times | 3 mg/L | 3 mg/L | 0.1 mg/L | 0.03 mg/L | 0.03 mg/L | 
9 | polymyxin B nonapeptide [PMBN] |  |  |  |  |  |  |  |  |  |  |  |  |  | concentration of PMBN required to sensitize the bacteria to most antibiotics by a factor of 10-30 ([1]; S. typhimurium SL 696): 1-3 μg/ml; amount of PMBN sufficient to sensitize E. coli to erythromycin and fusidic acid by a factor of 30 ([2]; E. coli): 0.3 µg; concentration of PMBN that sensitized the strains to killing by 10% NHS ([4]; E. coli strains, 10% normal human serum, 2 h): 0.3 µg/mL; bactericidal action of serum in the presence of PMBN after inactivation of complement ([4]; complement destroyed by heat (30 min at 56° C.) or zymosan A): the serum lost its capacity to kill bacteria; also recorded: NHS lost its bactericidal, PMBN-dependent action
